{"source": "patent US5512573A", "about": "“Use of phthaloylhydrazide derivatives as anti-hypoxic and defensive agents” (priority 1993, dated 1996)", "key": {"mice, rats": {"test_system": "mice, rats", "conditions": "oral and i.p., 500 and 2500 mg/kg, 14 days", "procedure": "Acute toxicity tests were performed on two animal species (mice, rats). More than 80 mice and 100 rats were used. The pharmaceutical was administered orally and intraperitoneally in doses of 500 and 2500 mg/kg (individual doses). The period of observation was 14 days."}, "female pregnant rats": {"test_system": "female pregnant rats", "conditions": "60 mg/kg i.p.", "procedure": "Teratogenic tests and embryotoxicity tests were performed on 58 female pregnant rats. A single dose was injected intraperitoneally on days 1, 3, 7, 10, 14 and 17 of gestation (60 mg/kg). The rats were decapitated on day 21 of the pregnancy and the uteruses and fetuses were examined."}, "guinea pigs": {"test_system": "guinea pigs", "description": "The allergenic activity of the drug was examined in guinea pigs."}, "Hexenalum-induced sleep": {"test_system": "Hexenalum-induced sleep", "conditions": "10 to 30 mg/kg, 15 min before Hexenalum 80 mg/kg", "procedure": "The effect of the drug on the length of Hexenalum-induced anesthesia was studied, i.e., the drug was administered in doses of 10 to 30 mg per kilogram of body weight, 15 minutes before the administration of the Hexenalum solution in a dose of 80 mg/kg."}, "male rats": {"test_system": "male rats", "procedure": "The effect of the sodium salt of 5-aminophthaloylhydrazide on blood pressure (BP) was examined in male rats weighing 230 to 270 g, in a controlled experiment where the rats were anesthetized with urethane. The blood pressure was recorded on tape by means of an electrical kymograph.\nAt the same time, we recorded the electrocardiogram in the second standard position as well as any changes in frequency and depth of respiration by means of a Morey capsule. We administered 5-aminophthaloylhydrazide in the femoral vein in the form of an aqueous solution prepared in a 2% sodium bicarbonate solution (pH=8.2), in doses of 40 mg/kg, 80 mg/kg and 50 mg/kg. Research on 5-aminophthaloylhydrazide was performed on 16 rats."}, "transplant rejection": {"test_system": "transplant rejection", "test": "Skin transplant from another animal (description)", "format": "in vivo", "conditions": "100 to 200 mg/kg", "description": "Treatment started on the second day following a skin transplant from another animal and continued for 45 to 50 days."}, "animal organisms": {"test_system": "animal organisms", "test": "Pharmacological studies, general toxicity statement", "conditions": "in vivo"}, "[1]": {"test_system": "high-level hypoxia in male mice", "procedure": "Experiments to test the resistance of the animals to high-level hypoxia were performed on 120 male mice weighing 18 to 20 g, and having reached sexual maturity.\nFive minutes before the experiment, the animals were given the following doses intramuscularly:\nthe first group (control group), 0.1 ml of physiological solution;\nthe second group (test group), a 20% oil solution in a dose of 30 mg/kg;\nthe third group, 5-aminophthaloylhydrazide in a dose of 30 mg/kg;\nthe fourth group, 5-aminophthaloylhydrazide in a dose of 60 mg/kg;\nthe fifth group, 5-aminophthaloylhydrazide in a dose of 80 mg/kg;\nthe sixth group, 5-aminophthaloylhydrazide in a dose of 150 mg/kg;\nthe seventh group, the drug in a dose of 200 mg/kg.\nThe period of tolerance to hypoxia was determined by raising the animals to an altitude of 10,400 meters at the speed of 100 meters per second."}, "[2]": {"test_system": "skin transplant rejection in chinchillas", "conditions": "intravenous, p<0.01", "procedure": "The experiments involved 30 chinchillas from which a strip of skin was removed measuring 2×2 cm. The resulting lesion was covered by an outside transplant. The animals were divided into three groups.\nThe first group was treated with traditional therapy (prednisolone and cyclosporine); the second group was given 5aminophthaloylhydrazide daily in a dose of 150 mg/kg; the third group received a combined treatment.\nTo assess the efficacy of the drug, the period before the rejection was measured and morphological studies were conducted."}, "psoriasis": {"test_system": "psoriasis", "procedure": "Patient, ill for 5 years. Was cured in the hospital several times during that period. Complained about itching, general weakness, unpleasant sensations in parts of the skin. […] Diagnosis: psoriasis approaching the acute phase.\nThe drug was administered intravenously to the patient."}, "[3]": {"test": "Summary of experiments on phthaloylhydrazide derivatives", "format": "in vivo"}, "[4]": {"test_system": "Corazolum- and strychnine-induced convulsions", "conditions": "40 and 80 mg/kg"}, "[5]": {"test_system": "leukocytes in ischemic tissue; surviving animals", "conditions": "intramuscular injections, p>0.05"}, "physchem [6]": {"test": "physchem"}, "physchem [7]": {"test": "physchem", "conditions": "octanol/water, pH 7.4"}}, "note": "Like-named read-outs stand apart in the source and are kept apart here."}
{"smiles": "Nc1cccc2c(=O)[nH][nH]c(=O)c12", "note": "[5-aminophthaloylhydrazide, 5-amino-2,3-dihydrophthalazine-1,2 dione]", "values": [{"measurement": "morphological alteration of liver, kidneys, heart and brain", "setting": "mice, rats", "value": "No morphological alteration was observed"}, {"measurement": "percentage of lethal outcome", "setting": "mice, rats; vs control group", "value": "did not exceed that of the control group"}, {"measurement": "abnormality of the fetuses", "setting": "female pregnant rats; single dose on days 1, 3, 7, 10, 14 and 17 of gestation", "value": "No abnormality of the fetuses was observed"}, {"measurement": "site of uterine attachment, number, weight and mortality of the fetuses", "setting": "female pregnant rats; vs control group", "value": "did not differ from those obtained for the control group"}, {"measurement": "local irritation", "setting": "guinea pigs; 20 to 100 mg", "value": "no symptoms of local irritation"}, {"measurement": "erythema at the site of administration", "setting": "guinea pigs; even large doses", "value": "No erythema was observed at the site of administration"}, {"measurement": "signs of allergy", "setting": "guinea pigs; subcutaneously or orally", "value": "No signs of allergy were observed"}, {"measurement": "extension of Hexenalum-induced sleep", "setting": "Hexenalum-induced sleep", "value": "did not cause a noteworthy extension of the Hexenalum-induced sleep"}, {"measurement": "electrocardiogram parameters", "setting": "male rats; 20 mg and 50 mg/kg", "value": "no changes were observed in the electrocardiogram parameters of the heart"}, {"measurement": "respiratory functions", "setting": "male rats; 20 mg and 50 mg/kg", "value": "no impairment of the respiratory functions was observed"}, {"measurement": "negative effect on the cardiovascular system or the respiration", "setting": "male rats; 40 and 50 mg/kg", "value": "did not present any evidence of a negative effect on the cardiovascular system or the respiration"}, {"measurement": "rise in blood pressure compared to the initial level", "setting": "male rats; i.v. 1% solution, 0.6 ml/minute, average", "value": "1.57±5.93", "unit": "%"}, {"measurement": "sudden fluctuations in the increase in blood pressure", "setting": "male rats; i.v., 40 mg or 50 mg/kg", "value": "No sudden fluctuations in the increase in blood pressure were observed"}, {"measurement": "time for blood pressure to return to the initial level", "setting": "male rats; i.v., average", "value": "≤ 30", "unit": "min"}, {"measurement": "fluctuations in the level of blood pressure compared to the beginning", "setting": "male rats; thirty minutes after administration, average", "value": "2.79±0.72"}, {"measurement": "effectiveness vs hormonal drugs (corticosteroids)", "setting": "transplant rejection", "value": "exceeds the hormonal drugs with long-term action known thus far (corticosteroids)"}, {"measurement": "toxicity in animal organisms", "setting": "animal organisms", "value": "absence of toxicity"}, {"measurement": "therapeutic effectiveness vs Dibunolo", "setting": "[1]; 30 mg/kg", "value": "less therapeutically effective than the known antioxidant Dibunolo"}, {"measurement": "therapeutic effectiveness vs Dibunolo", "setting": "[1]; 100 mg, p<0.001", "value": "exceeded that of Dibunolo in a reliable manner"}, {"measurement": "dose with the greatest therapeutic effect", "setting": "[1]; intramuscular", "value": 80, "unit": "mg/kg"}, {"measurement": "extension of life under high-level hypoxia", "setting": "[1]; intramuscular, all doses", "value": "extended life under conditions of high-level hypoxia in all cases"}, {"measurement": "therapeutic effect on last increase in dose", "setting": "[1]; last increase in administered amount", "value": "did not increase the therapeutic effect achieved"}, {"measurement": "rejection process vs traditional therapy", "setting": "[2]", "value": "slowed the rejection process down considerably"}, {"measurement": "response to subsequent treatment cycle", "setting": "psoriasis; 12 days", "value": "made it possible to eliminate the main symptoms and led to a long-term remission of the main symptoms"}, {"measurement": "residual pustules and papules", "setting": "psoriasis; flexor parts of the hands", "value": "Individual pustules and papules on the flexor parts of the hands remained"}, {"measurement": "time to return of acute symptoms", "setting": "psoriasis; human, in vivo", "value": 4, "unit": "months"}, {"measurement": "clinical symptoms", "setting": "psoriasis; intravenous, after 10 days of treatment", "value": "the itching and weakness disappeared, the temperature dropped and the skin symptoms disappeared"}, {"measurement": "affected parts of the skin tissue", "setting": "psoriasis; intravenous, day 20", "value": "the affected parts of the skin tissue had shrunk"}, {"measurement": "pharmacological activity, anti-hypoxic and defensive action", "setting": "[3]; doses of 10 to 300 mg/kg", "value": "possess a pronounced pharmacological activity"}, {"measurement": "therapeutic effects", "setting": "[3]; in vivo", "value": "major therapeutic effects"}, {"measurement": "stability", "setting": "anhydrous conditions", "value": "stable in anhydrous conditions (can be preserved for over one year)"}, {"measurement": "stability in aqueous solutions", "setting": "aqueous solutions", "value": "sometimes unstable in aqueous solutions"}, {"measurement": "reduction of induced convulsions", "setting": "[4]", "value": "did not reduce the induced convulsions"}, {"measurement": "prevention of Corazolum- and strychnine-induced convulsions", "setting": "[4]; preventive administration", "value": "did not prevent Corazolum- and strychnine-induced convulsions"}, {"measurement": "percentage of surviving animals", "setting": "[5]", "value": 60, "unit": "%"}, {"measurement": "effects of acute focal hypoxia", "setting": "acute focal hypoxia; in a series of cases", "value": "it was possible to prevent the effects of acute focal hypoxia"}, {"measurement": "therapeutic effect by number of administrations", "setting": "acute focal hypoxia; single vs two administrations at 12-hour intervals", "value": "a single administration of the drug proved insufficient and the main therapeutic effect was obtained after two administrations"}, {"measurement": "clinical symptoms", "setting": "generalized psoriasis; 20 mg/kg for 10 days", "value": "elimination of the itching and a lessening of the skin symptoms"}, {"measurement": "skin clearance", "setting": "generalized psoriasis; after a 30-day treatment", "value": "the skin was completely clear"}, {"measurement": "number of neutrophils in the epidermal cells", "setting": "generalized psoriasis; biopsy samples", "value": "considerable drop in the number of neutrophils in the epidermal cells"}, {"measurement": "remission period", "setting": "generalized psoriasis; human, in vivo", "value": 8, "unit": "months"}, {"measurement": "skin symptoms after topical application", "setting": "generalized psoriasis; solution of the drug in 15% DMSO", "value": "led quickly to the disappearance of the skin symptoms, including the pustules"}, {"measurement": "solubility", "setting": "physchem [6]; pH 6.5", "value": 2, "unit": "mM"}, {"measurement": "solubility", "setting": "physchem [6]; pH 7.4", "value": 12, "unit": "mM"}, {"measurement": "logD", "setting": "physchem [7]", "value": -0.699}]}
